What all share (format): functional, cell-based
A short description of test [1]: Cytotoxicity against human HCT116 cells after 24 hrs by WST assay. The conditions noted are these: HCT-116, 24 h.
Test [2] deals with A549. Put plainly: Cytotoxicity against human A549 cells after 24 hrs by WST assay. The conditions noted are these: A549, 24 h.
The subject of test [3] is KB. In words: Cytotoxicity against human KB cells after 24 hrs by WST assay.

For six molecules, IC50 results are on record in ChEMBL document CHEMBL3399960, “Cytochalasin derivatives from a jellyfish-derived fungus Phoma sp” (Bioorg Med Chem Lett, 2015).

Bounds are passed on as bounds.

A word on the IC50: it is the point on the concentration scale where inhibition reaches its midpoint.

As for `CC1=C(C)[C@H]2[C@H](Cc3ccccc3)NC(=O)[C@]23OC(=O)/C=C/C(=O)CCC[C@@H](C)C/C=C/[C@H]3[C@@H]1O`, the IC50 in test [1] stood at 38.1 µM; in test [2], 29.2 µM; in test [3] it was 19.9 µM.

`CC1=C(C)[C@H]2[C@H](Cc3ccccc3)NC(=O)[C@]23OC(=O)CCC(=O)CCC[C@@H](C)C/C=C/[C@H]3[C@@H]1O`: the IC50 is > 40 µM in test [1], 37.3 µM in test [2] and > 40 µM in test [3].

Consider `CC1=C(C)[C@H]2[C@H](Cc3ccccc3)NC(=O)[C@]23OC(=O)CC[C@H](O)CCC[C@@H](C)C/C=C/[C@H]3[C@@H]1O`, for which the IC50 in test [1], in test [2] and in test [3] was > 40 µM throughout.

For `C=C1[C@@H](C)[C@H]2[C@H](Cc3ccccc3)NC(=O)[C@]23OC(=O)CCC(=O)CCC[C@@H](C)C/C=C/[C@H]3[C@@H]1O`, the IC50 stood at 39.3 µM in test [1], 39.3 µM in test [2] and 37.3 µM in test [3].

Regarding `CC1=C[C@@H]2/C=C/C[C@H](C)CCCC/C=C/C(=O)O[C@]23C(=O)N[C@@H](Cc2ccccc2)[C@@H]3[C@@H]1C`, the half-inhibitory concentration (IC50) in test [1] was 18.2 µM; in test [2], 36.2 µM; in test [3], 19.7 µM.

With `COc1cccc2c1C(=O)c1c(O)c3c(c(O)c1C2=O)C[C@@](O)(C(=O)CO)C[C@@H]3O[C@H]1C[C@H](N)[C@H](O)[C@H](C)O1` [DOXORUBICIN], the IC50 stood at 2.2 µM in test [1], 1.3 µM in test [2] and 4.3 µM in test [3].
